According to patent US10071082B2, “Antimicrobial agents” (Rutgers, The State University of New Jersey, priority 2013, dated 2018):
Converted amounts (≈) assume the structure as drawn.

Tests used:
MRSA = assay: Test A antibacterial assay, broth microdilution MIC; format: cell-based; conditions: Staphylococcus aureus, read-out: MIC MRSA
Protocol: (§1) Antibacterial activity can be determined as per Clinical and Laboratory Standards Institute (CLSI) guidelines using a broth microdilution assay in which log-phase bacteria are grown at 37° C. in appropriate medium containing two-fold serial dilutions of a compound to yield final concentrations ranging from 256 to 0.06 μg/mL. For determination of minimal inhibitory concentration (MIC) values, bacterial growth is monitored after 24 to 48 hours by measuring optical density at 600 nm.

MSSA = assay: as above; format: cell-based; conditions: Staphylococcus aureus, read-out: MIC MSSA
Protocol: as §1

[1] = system: S. aureus ATCC 19636 (MSSA); assay: Test D in vivo efficacy, mouse peritonitis model of systemic infection; conditions: mice
[2] = system: S. aureus ATCC 43300 (MRSA); assay: as above; conditions: mice, p.o.

With `CN1CCC(C(=O)NC(=O)c2c(F)ccc(OCc3nc4cc(Cl)cnc4s3)c2F)CC1` [Example 17] the MIC (MRSA) was 4 µg/mL (≈ 8.32 µM), the MIC (MSSA) was 2 µg/mL (≈ 4.16 µM) and the “Survival (%)” value ([1]; i.v., 1x, total dose 0.6 mg/mouse, first dose immediately prior to infection, 24 Hrs) was 0%. For the same molecule, the “Survival (%)” value ([1]; i.v., 1x, total dose 0.6 mg/mouse, first dose immediately prior to infection, 48 Hrs) was 0%, the “Survival (%)” value ([1]; i.v., 1x, total dose 0.6 mg/mouse, first dose immediately prior to infection, 72 Hrs) was 0% and the “Survival (%)” value ([1]; i.v., 2x, total dose 1.2 mg/mouse, first dose immediately prior to infection, 24 Hrs) was 0%. The “Survival (%)” value ([1]; i.v., 2x, total dose 1.2 mg/mouse, first dose immediately prior to infection, 48 Hrs) was 0%, the “Survival (%)” value ([1]; i.v., 2x, total dose 1.2 mg/mouse, first dose immediately prior to infection, 72 Hrs) was 0% and the “Survival (%)” value ([1]; i.v., 3x, total dose 1.8 mg/mouse, first dose immediately prior to infection, 24 Hrs) was 33.3%. The “Survival (%)” value ([1]; i.v., 3x, total dose 1.8 mg/mouse, first dose immediately prior to infection, 48 Hrs) was 33.3%, the “Survival (%)” value ([1]; i.v., 3x, total dose 1.8 mg/mouse, first dose immediately prior to infection, 72 Hrs) was 33.3% and the “Survival (%)” value ([1]; i.v., 4x, total dose 2.4 mg/mouse, first dose immediately prior to infection, 24 Hrs) was 83.3%. For the same molecule, the “Survival (%)” value ([1]; i.v., 4x, total dose 2.4 mg/mouse, first dose immediately prior to infection, 48 Hrs) was 83.3%, the “Survival (%)” value ([1]; i.v., 4x, total dose 2.4 mg/mouse, first dose immediately prior to infection, 72 Hrs) was 83.3% and the “Survival (%)” value ([1]; p.o., 1x, total dose 0.8 mg/mouse, first dose 5 minutes prior to infection, 24 Hrs) was 0%. The “Survival (%)” value ([1]; p.o., 1x, total dose 0.8 mg/mouse, first dose 5 minutes prior to infection, 48 Hrs) was 0%, the “Survival (%)” value ([1]; p.o., 1x, total dose 0.8 mg/mouse, first dose 5 minutes prior to infection, 72 Hrs) was 0% and the “Survival (%)” value ([1]; p.o., 2x, total dose 1.6 mg/mouse, first dose 5 minutes prior to infection, 24 Hrs) was 0%. The “Survival (%)” value ([1]; p.o., 2x, total dose 1.6 mg/mouse, first dose 5 minutes prior to infection, 48 Hrs) was 0%, the “Survival (%)” value ([1]; p.o., 2x, total dose 1.6 mg/mouse, first dose 5 minutes prior to infection, 72 Hrs) was 0% and the “Survival (%)” value ([1]; p.o., 4x, total dose 3.2 mg/mouse, 24 Hrs) was 83.3%. The “Survival (%)” value ([1]; p.o., 4x, total dose 3.2 mg/mouse, 48 Hrs) was 83.3%, the “Survival (%)” value ([1]; p.o., 4x, total dose 3.2 mg/mouse, 72 Hrs) was 83.3% and the “Survival (%)” value ([1]; p.o., 4x, total dose 3.2 mg/mouse, first dose 5 minutes prior to infection, 24 Hrs) was 100%. For the same molecule, the “Survival (%)” value ([1]; p.o., 4x, total dose 3.2 mg/mouse, first dose 5 minutes prior to infection, 48 Hrs) was 100%, the “Survival (%)” value ([1]; p.o., 4x, total dose 3.2 mg/mouse, first dose 5 minutes prior to infection, 72 Hrs) was 100% and the “Survival (%)” value ([2]; 3x, total dose 2.4 mg/mouse, first dose 5 minutes prior to infection, 24 Hrs) was 66.7%. For the same molecule, the “Survival (%)” value ([2]; 3x, total dose 2.4 mg/mouse, first dose 5 minutes prior to infection, 48 Hrs) was 16.7%, the “Survival (%)” value ([2]; 3x, total dose 2.4 mg/mouse, first dose 5 minutes prior to infection, 72 Hrs) was 16.7% and the “Survival (%)” value ([2]; 6x, total dose 4.8 mg/mouse, 24 Hrs) was 83.3%. The “Survival (%)” value ([2]; 6x, total dose 4.8 mg/mouse, 48 Hrs) was 50%, the “Survival (%)” value ([2]; 6x, total dose 4.8 mg/mouse, 72 Hrs) was 50% and the “Survival (%)” value ([2]; 6x, total dose 4.8 mg/mouse, first dose 5 minutes prior to infection, 24 Hrs) was 100%. For the same molecule, the “Survival (%)” value ([2]; 6x, total dose 4.8 mg/mouse, first dose 5 minutes prior to infection, 48 Hrs) was 100%, the “Survival (%)” value ([2]; 6x, total dose 4.8 mg/mouse, first dose 5 minutes prior to infection, 72 Hrs) was 100% and the “Survival (%)” value ([2]; 6x, total dose 4.8 mg/mouse, first dose 10 minutes post-infection, 24 Hrs) was 100%. For the same molecule, the “Survival (%)” value ([2]; 6x, total dose 4.8 mg/mouse, first dose 10 minutes post-infection, 48 Hrs) was 100% and the “Survival (%)” value ([2]; 6x, total dose 4.8 mg/mouse, first dose 10 minutes post-infection, 72 Hrs) was 100%.

With `CN1CCC(C(=O)NC(=O)c2c(F)ccc(OCc3nc4cc(C(F)(F)F)cnc4s3)c2F)CC1` [Example 44] the MIC (MRSA) was 2 µg/mL (≈ 3.89 µM), the MIC (MSSA) was 0.5 µg/mL (≈ 0.972 µM) and the “Survival (%)” value ([1]; i.v., 1x, total dose 0.9 mg/mouse, 24 Hrs) was 83.3%. For the same molecule, the “Survival (%)” value ([1]; i.v., 1x, total dose 0.9 mg/mouse, 48 Hrs) was 83.3%, the “Survival (%)” value ([1]; i.v., 1x, total dose 0.9 mg/mouse, 72 Hrs) was 83.3% and the “Survival (%)” value ([1]; i.v., 2x, total dose 1.8 mg/mouse, 24 Hrs) was 100%. For the same molecule, the “Survival (%)” value ([1]; i.v., 2x, total dose 1.8 mg/mouse, 48 Hrs) was 100%, the “Survival (%)” value ([1]; i.v., 2x, total dose 1.8 mg/mouse, 72 Hrs) was 100% and the “Survival (%)” value ([1]; p.o., 1x, total dose 0.8 mg/mouse, 24 Hrs) was 50%. For the same molecule, the “Survival (%)” value ([1]; p.o., 1x, total dose 0.8 mg/mouse, 48 Hrs) was 50%, the “Survival (%)” value ([1]; p.o., 1x, total dose 0.8 mg/mouse, 72 Hrs) was 50% and the “Survival (%)” value ([1]; p.o., 2x, total dose 1.6 mg/mouse, 24 Hrs) was 100%. For the same molecule, the “Survival (%)” value ([1]; p.o., 2x, total dose 1.6 mg/mouse, 48 Hrs) was 100%, the “Survival (%)” value ([1]; p.o., 2x, total dose 1.6 mg/mouse, 72 Hrs) was 100% and the “Survival (%)” value ([1]; p.o., 3x, total dose 2.4 mg/mouse, 24 Hrs) was 100%. For the same molecule, the “Survival (%)” value ([1]; p.o., 3x, total dose 2.4 mg/mouse, 48 Hrs) was 100%, the “Survival (%)” value ([1]; p.o., 3x, total dose 2.4 mg/mouse, 72 Hrs) was 100% and the “Survival (%)” value ([1]; p.o., 4x, total dose 3.2 mg/mouse, n/group 4, 24 Hrs) was 100%. For the same molecule, the “Survival (%)” value ([1]; p.o., 4x, total dose 3.2 mg/mouse, n/group 4, 48 Hrs) was 100% and the “Survival (%)” value ([1]; p.o., 4x, total dose 3.2 mg/mouse, n/group 4, 72 Hrs) was 100%.
